Legend:
[1] = test system: 12 hematological cancer cell lines; assay: MTT cell viability, single agents; assay type: cell-based; details: panel of 12 lymphoid malignant cell lines, 24-48 hours, range over cell lines
Protocol: Momelotinib induces dose and time dependent manner growth inhibition in a panel of twelve lymphoid malignant cell lines. Multiple myeloma cells (U266, RPM18266), B-cell lymphoma cells (RL, WSU-NHL, Karpas-422), chronic lymphocytic leukemia cells (MEC-1), mantle cell lymphoma cells (Granta-519, Jeko-1), cutaneous T cell lymphoma cells (Hut-78), anaplastic large cell lymphoma cells (Karpas-299), and Hodgkin lymphoma cells (L-1236, L-540) were treated with a serial dosage of momelotinib (1-10 μM) for 24-48 hours.
Momelotinib and Compound A alone and in combination were tested in 12 hematological cancer cell lines: B-cell lymphomas (WSU-NHL, RL, Karpas-422), mantle cell lymphoma (Granta-519, Jeko-1), cutaneous T cell lymphoma (Hut-78), anaplastic large cell lymphoma (Karpas-299), Hodgkin lymphoma (L-1236, L-540), multiple myeloma (U266, RPM18266) and chronic lymphocytic leukemia (MEC-1). With the exception of GRANTA-519, hematological cancer cell lines were cultured in RPMI-1640 supplemented with 10% fetal bovine serum (FBS), 2 mM glutamine, and 100 U/mL penicillin and streptomycin. For Granta-519 cells, DMEM was used in place of RPMI-1640.
Cell viability was evaluated by MTT colorimetric assay following the manufacturer's instructions. […]

α-tubulin = assay: Western blot of acetylation of α-tubulin; assay type: cell-based; details: lymphoma cells; extent not further modified by momelotinib
Protocol: Lymphoma cell lines treated with 1 μM of momelotinib and 4 μM of citarinostat alone and in combination. […] Whole-cell lysates were subjected to western blotting using the indicated Abs. Tubulin was used to normalize protein loading. […] Whole-cell lysates were subjected to western blotting using the indicated Abs. Tubulin was used to normalize protein loading.
The combination treatment with momelotinib and Compound A leads JAK2/STAT3 pathway inactivation.

IC50 [1] | Compound | acetylation of α-tubulin (α-tubulin)
1.51 to 60 µM | O=C(CCCCCCNC(=O)c1cnc(N(c2ccccc2)c2ccccc2Cl)nc1)NO [Compound A, 2-((2-chlorophenyl)(phenyl)amino)-N-(7-(hydroxyamino)-7-oxoheptyl)pyrimidine-5-carboxamide] | induced the acetylation of α-tubulin
1.8 to 9.6 µM | N#CCNC(=O)c1ccc(-c2ccnc(Nc3ccc(N4CCOCC4)cc3)n2)cc1 [Momelotinib, momelotinib, reference compound] | –

— patent US11433069B2, “Methods of use and pharmaceutical combinations comprising histone deacetylase inhibitors and JAK1/2 inhibitors” (University of Modena and Reggio Emilia, priority 2017, dated 2022)
